# Measured values as given in ChEMBL document CHEMBL1125524, “Adenosine A1 antagonists. 2. Structure-activity relationships on diuretic activities and protective effects against acute renal failure” (J Med Chem, 1992).
# How the values were obtained:
# [1] = test system: Rattus norvegicus; experiment: Serum creatinine concentration measured after intraperitoneal administration of 10 mg/kg of compound to rats(vehicle 4.98+/-0.08); type: functional
# [2] = test system: Rattus norvegicus; experiment: Oral diuretic activity was measured after oral administration of 25 mg/kg to rats(control volume is 0.89+/-0.06); type: functional, Urine
# [3] = test system: Rattus norvegicus; experiment: Percent inhibition of serum creatinine by the compound given as ratio of Cr value in treated to vehicle treated ones after intraperitoneal administration of 10 mg/kg of compound to rats(vehicle 4.98+/-0.08); type: functional; conditions: ip
# [4] = test system: Rattus norvegicus; experiment: Ratio of urinary excretion value (urinary volume) in treated rats to that in control rats, at a peroral dose of 25 mg/Kg; type: functional, Urine
# [5] = test system: Rattus norvegicus; experiment: Ratio of sodium ion/potassium ion concentration in treated rats to that in control rats, at a peroral dose of 25 mg/Kg; type: functional
# [6] = test system: Rattus norvegicus; experiment: Ratio of urinary excretion value (Na+ concentration) in treated rats to that in control rats, at a peroral dose of 25 mg/Kg; type: functional, Urine
# [7] = test system: Rattus norvegicus; experiment: Ratio of urinary excretion value (Na+ concentration) in treated rats to that in control rats, at a peroral dose of 6.25 mg/Kg; type: functional, Urine
# [8] = test system: Rattus norvegicus; experiment: Effect on urinary excretion potassium and sodium after oral administration of 25 mg/kg to rats(potassium and sodium excretion in control rat is […]+/-[…]); type: functional, Urine
# [9] = test system: Rattus norvegicus; experiment: Urea nitrogen concentration measured after intraperitoneal administration of 10 mg/kg of compound to rats(vehicle 150.7+/-3.4); type: functional
# [10] = test system: Rattus norvegicus; experiment: Percent inhibition of Urea nitrogen by the compound given as ratio of UN value in treated to vehicle treated ones after intraperitoneal administration of 10 mg/kg of compound to rats(vehicle 150.7+/-3.4); type: functional; conditions: ip
# [11] = test system: Rattus norvegicus; experiment: Ratio of urinary excretion value (urinary volume) in treated rats to that in control rats, at a peroral dose of 6.25 mg/Kg; type: functional, Urine
# [12] = molecular target: Adenosine A2 receptor (Rattus norvegicus, UniProt P29276+P30543)
# [13] = test system: Rattus norvegicus; experiment: Serum creatinine concentration measured after intraperitoneal administration of 1 mg/kg of compound to rats(vehicle 3.06+/-0.68); type: functional
# [14] = test system: Rattus norvegicus; experiment: Serum creatinine concentration measured after intraperitoneal administration of 10 mg/kg of compound to rats(vehicle 2.13+/-0.27); type: functional
# [15] = test system: Rattus norvegicus; experiment: Effect on urinary excretion potassium and sodium after oral administration of 1.6 mg/kg to rats(potassium and sodium excretion in control rat is 0.173+/-0.016); type: functional, Urine
# [16] = test system: Rattus norvegicus; experiment: Ratio of urinary excretion value (urinary volume) in treated rats to that in control rats, at a peroral dose of 1.6 mg/Kg; type: functional, Urine
# [17] = test system: Rattus norvegicus; experiment: Percent inhibition of serum creatinine by the compound given as ratio of Cr value in treated to vehicle treated ones after intraperitoneal administration of 1 mg/kg of compound to rats(vehicle 3.06+/-0.68); type: functional; conditions: ip
# [18] = test system: Rattus norvegicus; experiment: Ratio of sodium ion/potassium ion concentration in treated rats to that in control rats, at a peroral dose of 1.6 mg/Kg; type: functional
# [19] = test system: Rattus norvegicus; experiment: Ratio of urinary excretion value (Na+ concentration) in treated rats to that in control rats, at a peroral dose of 1.6 mg/Kg; type: functional, Urine
# [20] = test system: Rattus norvegicus; experiment: Effect on urinary excretion potassium and sodium after oral administration of 25 mg/kg to rats(potassium and sodium excretion in control rat is 0.146+/-0.017); type: functional, Urine
# [21] = test system: Rattus norvegicus; experiment: Percent inhibition of serum creatinine by the compound given as ratio of Cr value in treated to vehicle treated ones after intraperitoneal administration of 10 mg/kg of compound to rats(vehicle 2.13+/-0.27); type: functional; conditions: ip
# [22] = test system: Rattus norvegicus; experiment: Oral diuretic activity was measured after oral administration of 25 mg/kg to rats(control volume is 0.96+/-0.20); type: functional, Urine
# [23] = test system: Rattus norvegicus; experiment: Urea nitrogen concentration measured after intraperitoneal administration of 1 mg/kg of compound to rats(vehicle 120.9+/-23.3); type: functional
# [24] = species on record: Rattus norvegicus; type: functional, Urine; conditions: dose 1.6 mg/kg; route oral
# [25] = test system: Rattus norvegicus; experiment: Percent inhibition of Urea nitrogen by the compound given as ratio of UN value in treated to vehicle treated ones after intraperitoneal administration of 1 mg/kg of compound to rats(vehicle 120.9+/-23.3); type: functional; conditions: ip
# [26] = test system: Rattus norvegicus; experiment: Serum creatinine concentration measured after intraperitoneal administration of 1 mg/kg of compound to rats(vehicle 3.62+/-0.52); type: functional
# [27] = test system: Rattus norvegicus; experiment: Serum creatinine concentration measured after intraperitoneal administration of 10 mg/kg of compound to rats(vehicle 3.93+/-0.45); type: functional
# [28] = test system: Rattus norvegicus; experiment: Urea nitrogen concentration measured after intraperitoneal administration of 1 mg/kg of compound to rats(vehicle 105.2+/-14.9); type: functional
# [29] = test system: Rattus norvegicus; experiment: Oral diuretic activity was measured after oral administration of 1.6 mg/kg to rats(control volume is 0.96+/-0.09); type: functional, Urine
# [30] = test system: Rattus norvegicus; experiment: Urea nitrogen concentration measured after intraperitoneal administration of 10 mg/kg of compound to rats(vehicle 129.1+/-14.5); type: functional
# [31] = test system: Rattus norvegicus; experiment: Effect on urinary excretion potassium and sodium after oral administration of 1.6 mg/kg to rats(potassium and sodium excretion in control rat is 0.147+/-0.015); type: functional, Urine
# [32] = molecular target: T1, Adenosine receptor A1 (Cavia porcellus, UniProt P47745)
# T1 sequence (P47745 whole entry): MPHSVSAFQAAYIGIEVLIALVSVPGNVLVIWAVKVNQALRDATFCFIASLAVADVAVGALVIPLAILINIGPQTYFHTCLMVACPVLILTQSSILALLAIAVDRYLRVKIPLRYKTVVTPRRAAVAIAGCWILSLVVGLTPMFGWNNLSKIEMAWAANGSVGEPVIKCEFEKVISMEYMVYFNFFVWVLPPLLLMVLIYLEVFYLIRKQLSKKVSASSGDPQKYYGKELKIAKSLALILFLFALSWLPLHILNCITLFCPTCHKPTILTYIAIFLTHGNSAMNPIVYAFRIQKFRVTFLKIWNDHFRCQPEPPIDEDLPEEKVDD
# Description: Binding affinity against adenosine A1 receptor in guinea pig forebrain membranes using N6-[3H]cyclohexyladenosine as radioligand
compound,measurement,setting,value
CCCn1c(=O)c2c(nc(C(C3CC3)C3CC3)n2CC)n(CCC)c1=O,Cr,[1],4.5 mg/dL
same,Urine volume,[2],2.15 ml 6hr-1 100g-1
same,inhibition in vivo at 10 mg/kg,[3],10%
same,T/C,[4],2.42
same,Na+/K+,[5],1.51
same,T/C,[6],2.14
same,T/C,[7],1.24
same,Na,[8],0.348 m equiv 6hr-1 100g-1
same,UN,[9],142.7 mg/dL
same,inhibition in vivo at 10 mg/kg,[10],5%
same,T/C,[11],1.19
same,Ki,[12],14 µM
CCCn1c(=O)c2nc(C3C(C)(C)CCC3(C)C)[nH]c2n(CCC)c1=O,Cr,[13],3.03 mg/dL
same,Cr,[14],1.43 mg/dL
same,Na,[15],0.213 m equiv 6hr-1 100g-1
same,T/C,[16],1.42
same,T/C,[4],1.4
same,inhibition in vivo at 1 mg/kg,[17],1%
same,Na+/K+,[18],1.12
same,Na+/K+,[5],1.21
same,T/C,[19],1.23
same,T/C,[6],1.18
same,Na,[20],0.172 m equiv 6hr-1 100g-1
same,inhibition in vivo at 10 mg/kg,[21],33%
same,Urine volume,[22],1.34 ml 6hr-1 100g-1
same,UN,[23],113.4 mg/dL
same,Urine volume,[24],1.5 ml 6hr-1 100g-1
same,inhibition in vivo at 1 mg/kg,[25],6%
same,Ki,[12],> 100 µM
Cn1c(=O)c2nc(C(C3CC3)C3CC3)[nH]c2n(C)c1=O,Cr,[26],4.1 mg/dL
same,Cr,[27],1.78 mg/dL
same,T/C,[16],0.91
same,Na+/K+,[18],1.18
same,T/C,[19],1.24
same,UN,[28],121.4 mg/dL
same,Urine volume,[29],0.87 ml 6hr-1 100g-1
same,UN,[30],57.2 mg/dL
same,Na,[31],0.183 m equiv 6hr-1 100g-1
same,Ki,[12],2.7 µM
CCCn1c(=O)c2[nH]c(CC3CCCCC3)nc2n(CCC)c1=O,Ki,[32],11 nM
